12 compounds from ChEMBL document CHEMBL1150441 can be followed below.

Structures are written as SMILES. Calls of active or inactive are those of the source. The rule behind the calls is not given here.

Assay [1] deals with T1, Estrogen receptor (Rattus norvegicus) (UniProt P06211+Q62986). The assay is described as follows: Effect on uterine weight as tissue specific estrogen agonist assay in ovariectomized rat model: significant increase at <=10 mg/kg dose. Type of assay: functional, organism-based. As to conditions: filed as agonist.
Assay [2] addresses T1, Estrogen receptor (Rattus norvegicus). The assay is described as follows: Effect on serum cholesterol level as tissue specific estrogen agonist assay in ovariectomized rat model: significant decrease at <=10 mg/kg dose. The class given is functional, organism-based. As to conditions: filed as agonist.
Assay [3] has as its system Rattus norvegicus. The assay is described as follows: Effect on uterine weight as tissue specific estrogen agonist assay in ovariectomized rat model at 0.1 mg/kg dose: Not significant. Type of assay: functional, organism-based. More on the design: dose 0.1 mg/kg.
The next assay concerns MCF7. The assay is described as follows: Inhibition of MCF-7 cell proliferation stimulated by 10e-12 M estradiol: Not active. Type of assay: functional, cell-based. Particulars: Homo sapiens.
Assay [4] deals with T1, Estrogen receptor (Rattus norvegicus). The assay is described as follows: Effect on serum cholesterol level as tissue specific estrogen agonist assay in ovariectomized rat model: significant decrease at <10 mg/kg dose. The class given is functional, organism-based. As to conditions: filed as agonist.
The species named for assay [5] is Rattus norvegicus. The assay is described as follows: Effect on uterine weight as tissue specific estrogen agonist assay in ovariectomized rat model: Not significant. Type of assay: functional, organism-based.
For assay [6], the species on record is Rattus norvegicus. The assay is described as follows: Effect on serum cholesterol level as tissue specific estrogen agonist assay in ovariectomized rat model: Not significant. Type of assay: functional, organism-based.

As to `CCc1sc2cc(O)ccc2c1Cc1ccc(OCCN2CCCCC2)cc1`, the Activity result in assay [1] and in assay [2] was “Agonist” throughout.

`CC(C)c1sc2cc(O)ccc2c1C(=O)c1ccc(OCCN2CCCCC2)cc1`: the result in the assay on Rattus norvegicus [3] was inactive.

Regarding `C[C@]12CC[C@@H]3c4ccc(O)cc4CC[C@H]3[C@@H]1CC[C@@H]2O`, the Dose result in the assay with MCF7 was “inactive”.

For the compound `CC(C)c1sc2cc(O)ccc2c1Cc1ccc(OCCN2CCCCC2)cc1`, the Activity result in assay [1] and in assay [2] was “Agonist” in each case.

In the case of `Oc1ccc2c(Cc3ccc(OCCN4CCCCC4)cc3)c(C3CCCCC3)sc2c1`, the Activity result in assay [4] and in assay [1] was “Agonist” each time.

Consider `CCc1sc2cc(O)ccc2c1C(=O)c1ccc(OCCN2CCCCC2)cc1`, for which, in the assay filed under Rattus norvegicus [5], the outcome was inactive.

Take `Oc1ccc2c(Cc3ccc(OCCN4CCCCC4)cc3)c([C@H]3CC[C@H](O)CC3)sc2c1`: the result in the assay with Rattus norvegicus [3] was inactive.

With `O=C(c1ccc(OCCN2CCCCC2)cc1)c1c(C2CCCC2)sc2cc(O)ccc12`, the result with Rattus norvegicus [3] was inactive.

Consider `Oc1ccc2c(Cc3ccc(OCCN4CCCCC4)cc3)c(C3CCCC3)sc2c1`, for which, in assay [2], the Activity result is “Agonist”. The outcome in the assay with Rattus norvegicus [3] was inactive.

`Oc1ccc2c(C(O)c3ccc(OCCN4CCCCC4)cc3)c(C3CCCC3)sc2c1` (configuration not stated): the result in the assay filed under Rattus norvegicus [6] was inactive.

For the compound `Cc1sc2cc(O)ccc2c1Cc1ccc(OCCN2CCCCC2)cc1`, the result in the assay listed under Rattus norvegicus [6] and in the assay filed under Rattus norvegicus [5] was inactive.

For `Cc1sc2cc(O)ccc2c1C(=O)c1ccc(OCCN2CCCCC2)cc1`, in the assay listed under Rattus norvegicus [5], the result was inactive.
